Data as given in patent publication US20260028365A1 (BIOGEN MA INC., priority 2022, published 2026).
pIC50: −log10 of the molar value. Where two headings read alike, the source gives them in different places.

Experiments:
[1] = target: JH2 domain of human Tyk2 (Homo sapiens (Human), UniProt P29597); experiment: JH2 Biochemical Assay (TR-FRET probe displacement); format: binding
[2] = target: Tyk2 (Homo sapiens (Human), UniProt P29597); experiment: pSTAT4 Cell Assay (MSD, NK92 cells); format: cell-based
[3] = TR-FRET probe displacement, JH2 domain
[4] = JH2 domain of human Tyk2, TR-FRET probe displacement
[5] = TR-FRET probe displacement, JH2 domain of human Tyk2

Sequence of JH2 domain of human Tyk2 (P29597 575-876): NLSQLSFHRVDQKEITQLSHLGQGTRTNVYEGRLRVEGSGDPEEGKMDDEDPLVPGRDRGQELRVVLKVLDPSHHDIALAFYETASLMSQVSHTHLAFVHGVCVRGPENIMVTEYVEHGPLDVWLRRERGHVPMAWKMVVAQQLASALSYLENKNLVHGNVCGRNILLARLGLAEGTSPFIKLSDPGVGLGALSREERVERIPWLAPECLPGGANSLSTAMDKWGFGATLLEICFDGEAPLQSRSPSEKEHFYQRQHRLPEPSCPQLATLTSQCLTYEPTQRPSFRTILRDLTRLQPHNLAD
Sequence of Tyk2 (P29597 whole entry, the tested form may be a part): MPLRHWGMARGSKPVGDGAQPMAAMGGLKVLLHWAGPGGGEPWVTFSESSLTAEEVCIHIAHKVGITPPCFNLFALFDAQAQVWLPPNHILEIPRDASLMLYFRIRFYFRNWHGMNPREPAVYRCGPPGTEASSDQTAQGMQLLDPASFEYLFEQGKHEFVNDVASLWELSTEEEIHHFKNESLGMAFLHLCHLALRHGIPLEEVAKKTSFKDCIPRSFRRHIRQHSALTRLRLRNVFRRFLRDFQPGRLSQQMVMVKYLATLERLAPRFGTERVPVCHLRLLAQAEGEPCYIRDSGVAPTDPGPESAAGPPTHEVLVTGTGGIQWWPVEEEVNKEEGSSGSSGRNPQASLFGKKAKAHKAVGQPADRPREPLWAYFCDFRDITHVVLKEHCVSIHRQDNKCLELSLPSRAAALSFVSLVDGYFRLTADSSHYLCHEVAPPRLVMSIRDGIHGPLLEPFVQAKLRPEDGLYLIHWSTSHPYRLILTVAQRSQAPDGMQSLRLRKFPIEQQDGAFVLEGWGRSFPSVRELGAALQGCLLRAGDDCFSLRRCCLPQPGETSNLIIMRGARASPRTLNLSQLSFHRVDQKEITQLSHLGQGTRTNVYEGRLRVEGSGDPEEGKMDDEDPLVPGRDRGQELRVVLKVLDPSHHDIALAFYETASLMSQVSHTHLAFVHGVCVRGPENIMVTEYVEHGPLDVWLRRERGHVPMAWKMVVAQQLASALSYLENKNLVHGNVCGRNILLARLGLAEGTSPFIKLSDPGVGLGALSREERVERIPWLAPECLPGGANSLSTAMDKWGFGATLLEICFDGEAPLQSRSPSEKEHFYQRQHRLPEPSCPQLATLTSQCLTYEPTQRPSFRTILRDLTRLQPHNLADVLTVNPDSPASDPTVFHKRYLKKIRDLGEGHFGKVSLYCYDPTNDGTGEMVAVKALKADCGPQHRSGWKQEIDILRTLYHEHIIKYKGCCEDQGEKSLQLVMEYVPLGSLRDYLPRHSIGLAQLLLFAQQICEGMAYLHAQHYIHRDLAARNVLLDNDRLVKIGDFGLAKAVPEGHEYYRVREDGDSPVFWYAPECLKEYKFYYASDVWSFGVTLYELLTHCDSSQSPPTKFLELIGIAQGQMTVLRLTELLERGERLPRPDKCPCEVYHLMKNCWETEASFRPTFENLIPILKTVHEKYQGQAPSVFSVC

| Compound | pIC50 [1, 3] | pIC50 [2] | pIC50 [1, 4] | pIC50 ([2]; MSD) | pIC50 [1, 5] |
| --- | --- | --- | --- | --- | --- |
| COC1CCN(c2cnc(-c3cnc(NC(C)=O)cc3Nc3ccnc(C(C)(F)F)n3)cn2)C1 (centres unmarked) [Example 867, N-(4-((2-(1,1-difluoroethyl)pyrimidin-4-yl)amino)-5-(5-(3-methoxypyrrolidin-1-yl)pyrazin-2-yl)pyridin-2-yl)acetamide] | ≥ 8.00 | 7.00 to 8.00 | – | – | – |
| CC(=O)Nc1cc(Nc2ccnc(C(C)(F)F)n2)c(-c2cc(OC(F)F)ncn2)cn1 [Example 767, N-(4-((2-(1,1-difluoroethyl)pyrimidin-4-yl)amino)-5-(6-(difluoromethoxy)pyrimidin-4-yl)pyridin-2-yl)acetamide] | ≥ 8.00 | 7.00 to 8.00 | – | – | – |
| CC(=O)Nc1cc(Nc2cc(C)nc(C(C)(F)F)n2)c(-c2cccc(C(C)O)n2)cn1 (racemic) [Example 638, rac-(R)-N-(4′-((2-(1,1-difluoroethyl)-6-methylpyrimidin-4-yl)amino)-6-(1-hydroxyethyl)-[2,3′-bipyridin]-6′-yl)acetamide] | – | – | ≥ 8.00 | ≥ 8.00 | – |
| COc1nc(C)cc(-c2cnc(NC(C)=O)cc2Nc2cc(C)nc(C(C)(F)F)n2)n1 [Example 156, N-(4-((2-(1,1-difluoroethyl)-6-methylpyrimidin-4-yl)amino)-5-(2-methoxy-6-methylpyrimidin-4-yl)pyridin-2-yl)acetamide] | – | – | – | ≥ 8.00 | ≥ 8.00 |
| CC(=O)Nc1cc(Nc2cc(C)nc(C(C)(F)F)n2)c(-c2csc(C(C)C)n2)cn1 [Example 612, N-(4-((2-(1,1-difluoroethyl)-6-methylpyrimidin-4-yl)amino)-5-(2-isopropylthiazol-4-yl)pyridin-2-yl)acetamide] | – | – | ≥ 8.00 | ≥ 8.00 | – |
| CC(=O)Nc1cc(Nc2cc(C)nc(C(C)(F)F)n2)c(OCc2cnoc2)cn1 [Example 504, N-(4-((2-(1,1-difluoroethyl)-6-methylpyrimidin-4-yl)amino)-5-(isoxazol-4-ylmethoxy)pyridin-2-yl)acetamide] | – | – | ≥ 8.00 | 7.00 to 8.00 | – |
| CC(=O)Nc1cc(Nc2cc(C)nc([C@]34CO[C@](CF)(C3)C4)n2)c(-c2ccn(C)n2)cn1 [Example 560, N-(4-((2-((1s,4s)-1-(fluoromethyl)-2-oxabicyclo[2.1.1]hexan-4-yl)-6-methylpyrimidin-4-yl)amino)-5-(1-methyl-1H-pyrazol-3-yl)pyridin-2-yl)acetamide] | – | – | 7.00 to 8.00 | ≤ 6.00 | – |
| CC(=O)Nc1cc(Nc2cc(C)nc(C(C)(F)F)n2)c(-c2ccc(COC(F)F)cn2)cn1 [Example 524, N-(4′-((2-(1,1-difluoroethyl)-6-methylpyrimidin-4-yl)amino)-5-((difluoromethoxy)methyl)-[2,3′-bipyridin]-6′-yl)acetamide] | – | – | ≥ 8.00 | ≥ 8.00 | – |
| CCOc1cnc(NC(C)=O)cc1Nc1cc(-c2cnn(CCN(C)C)c2)nc(C(C)(F)F)n1 [Example 308, N-(4-((2-(1,1-difluoroethyl)-6-(1-(2-(dimethylamino)ethyl)-1H-pyrazol-4-yl)pyrimidin-4-yl)amino)-5-ethoxypyridin-2-yl)acetamide] | – | – | – | 7.00 to 8.00 | ≥ 8.00 |
| CC(=O)Nc1cc(Nc2cc(C)nc(C(C)(F)F)n2)c(-c2nsc(N(C)C)n2)cn1 [Example 763, N-(4-((2-(1,1-difluoroethyl)-6-methylpyrimidin-4-yl)amino)-5-(5-(dimethylamino)-1,2,4-thiadiazol-3-yl)pyridin-2-yl)acetamide] | ≥ 8.00 | 6.00 to 7.00 | – | – | – |
| CC(=O)Nc1cc(Nc2cc(C)nc(C(C)(F)F)n2)c(-c2csc(C)n2)cn1 [Example 606, N-(4-((2-(1,1-difluoroethyl)-6-methylpyrimidin-4-yl)amino)-5-(2-methylthiazol-4-yl)pyridin-2-yl)acetamide] | – | – | ≥ 8.00 | ≥ 8.00 | – |
| COc1nc(C)cc(Nc2cc(NC(C)=O)ncc2-c2ccn(C)n2)n1 [Example 551, N-(4-((2-methoxy-6-methylpyrimidin-4-yl)amino)-5-(1-methyl-1H-pyrazol-3-yl)pyridin-2-yl)acetamide] | – | – | ≥ 8.00 | 7.00 to 8.00 | – |
| CC(=O)Nc1cc(Nc2cc(C)nc(C(C)(C)F)n2)c(-c2ccnc(C)n2)cn1 [Example 176, N-(4-((2-(2-fluoropropan-2-yl)-6-methylpyrimidin-4-yl)amino)-5-(2-methylpyrimidin-4-yl)pyridin-2-yl)acetamide] | – | – | – | ≥ 8.00 | ≥ 8.00 |
| COc1cncc(Oc2cnc(NC(C)=O)cc2Nc2cc(C)nc(C(C)(F)F)n2)n1 [Example 357, N-(4-((2-(1,1-difluoroethyl)-6-methylpyrimidin-4-yl)amino)-5-((6-methoxypyrazin-2-yl)oxy)pyridin-2-yl)acetamide] | – | – | – | ≤ 6.00 | 7.00 to 8.00 |
| CC(=O)Nc1cc(Nc2cc(C)nc(C(C)(F)F)n2)c(-c2csc(CN(C)C)n2)cn1 [Example 786, N-(4-((2-(1,1-difluoroethyl)-6-methylpyrimidin-4-yl)amino)-5-(2-((dimethylamino)methyl)thiazol-4-yl)pyridin-2-yl)acetamide] | ≥ 8.00 | ≥ 8.00 | – | – | – |
| CC(=O)Nc1cc(Nc2cc(C)nc(C(C)(F)F)n2)c(-c2cnc(CN(C)C)cn2)cn1 [Example 807, N-(4-((2-(1,1-difluoroethyl)-6-methylpyrimidin-4-yl)amino)-5-(5-((dimethylamino)methyl)pyrazin-2-yl)pyridin-2-yl)acetamide] | ≥ 8.00 | ≥ 8.00 | – | – | – |
| CC(=O)Nc1cc(Nc2cncc(C(C)(F)F)n2)c(-c2ncc(F)cn2)cn1 [Example 188, N-(4-((6-(1,1-difluoroethyl)pyrazin-2-yl)amino)-5-(5-fluoropyrimidin-2-yl)pyridin-2-yl)acetamide] | – | – | – | 7.00 to 8.00 | ≥ 8.00 |
| CC(=O)Nc1cc(Nc2cc(C(C)C)nc(C(C)(F)F)n2)c(F)cn1 [Example 817, N-(4-((2-(1,1-difluoroethyl)-6-isopropylpyrimidin-4-yl)amino)-5-fluoropyridin-2-yl)acetamide] | 7.00 to 8.00 | ≤ 6.00 | – | – | – |
| CC(=O)Nc1cc(Nc2ccnc(C(C)(F)F)n2)c(-n2cc(C)cn2)cn1 [Example 728, N-(4-((2-(1,1-difluoroethyl)pyrimidin-4-yl)amino)-5-(4-methyl-1H-pyrazol-1-yl)pyridin-2-yl)acetamide] | – | – | ≥ 8.00 | 7.00 to 8.00 | – |
| CC(=O)Nc1cc(Nc2cc(C)nc(C(C)(F)F)n2)c(OCC(F)(F)F)cn1 [Example 23, N-(4-((2-(1,1-difluoroethyl)-6-methylpyrimidin-4-yl)amino)-5-(2,2,2-trifluoroethoxy)pyridin-2-yl)acetamide] | – | – | – | 6.00 to 7.00 | ≥ 8.00 |
| CCOc1cnc(NC(C)=O)cc1Nc1cc(O[C@H]2C[C@@H](OC)C2)cc(C(C)(F)F)n1 [Example 15, N-(4-((6-(1,1-difluoroethyl)-4-((1s,3s)-3-methoxycyclobutoxy)pyridin-2-yl)amino)-5-ethoxypyridin-2-yl)acetamide] | – | – | – | 7.00 to 8.00 | ≥ 8.00 |
| CCOc1cnc(NC(C)=O)cc1Nc1cc(-c2cnn(CC(F)(F)F)c2)nc(C(C)(F)F)n1 [Example 309, N-(4-((2-(1,1-difluoroethyl)-6-(1-(2,2,2-trifluoroethyl)-1H-pyrazol-4-yl)pyrimidin-4-yl)amino)-5-ethoxypyridin-2-yl)acetamide] | – | – | – | 7.00 to 8.00 | ≥ 8.00 |
